Consider eleven compounds from the NIST ThermoML archive (doi:10.1016/j.jct.2014.01.016).

For the data set the following is noted: 298.15 K; Liquid; Gas chromatography.
The term vapor or sublimation pressure denotes the pressure of vapour in equilibrium with the condensed phase. `CCC1CCC(=O)O1` (stereo unspecified) [2(3H)-furanone, 5-ethyldihydro-]: the “vapor or sublimation pressure” value was found to be 0.0225 kPa. Next, `CCCCCC1CCC(=O)O1` (stereo unspecified) [2(3H)-furanone, dihydro-5-pentyl-]: 0.00097 kPa; `CCCCCC1CCCC(=O)O1` (stereo unspecified) [2H-pyran-2-one, tetrahydro-6-pentyl-]: 0.00027 kPa; `CCCC1CCCC(=O)O1` (stereo unspecified) [2H-pyran-2-one, tetrahydro-6-propyl-]: 0.00221 kPa. Take `CCCCCCC1CCC(=O)O1` (stereo unspecified) [γ-decalactone]: the “vapor or sublimation pressure” value came to 0.00033 kPa. Take `CCCCCCCCC1CCC(=O)O1` (stereo unspecified) [γ-dodecanolactone]: the “vapor or sublimation pressure” value was determined as 4e-05 kPa. As to `CCCCC1CCC(=O)O1` (stereo unspecified) [γ-octanolactone], the “vapor or sublimation pressure” value was determined as 0.00278 kPa. With `CCCCCCCC1CCC(=O)O1` (stereo unspecified) [γ-undecanolactone], the “vapor or sublimation pressure” value was found to be 0.00012 kPa. As for `CCCCCCCC1CCCC(=O)O1` (stereo unspecified) [δ-dodecanolactone], the “vapor or sublimation pressure” value turned out to be 3e-05 kPa.

Regarding `CCCCC1CCCC(=O)O1` (stereo unspecified) [δ-nonanolactone], the “vapor or sublimation pressure” value is recorded as 0.00076 kPa. With `CCCCCCC1CCCC(=O)O1` (stereo unspecified) [δ-undecanolactone], the “vapor or sublimation pressure” value is recorded as 9e-05 kPa.
